{"source": "patent US7795279B2", "about": "“Method of inhibiting FLT3 kinase” (Janssen Pharmaceutica NV, priority 2005, dated 2010)", "key": {"[1]": {"system": "MV4-11 cells", "test": "Inhibition of MV4-11 cell proliferation (CellTiterGlo)", "type": "cell-based", "details": "Homo sapiens, 72 hours growth, uncertainty ±20%", "procedure": "To assess the cellular potency of compounds of the present invention, FLT3 specific growth inhibition was measured in the leukemic cell line MV4-11 (ATCC Number: CRL-9591). MV4-11 cells are derived from a patient with childhood acute myelomonocytic leukemia with an 11q23 translocation resulting in a MLL gene rearrangement and containing an FLT3-ITD mutation (AML subtype M4)(1,2). MV4-11 cells cannot grow and survive without active FLT3ITD.\nTo measure proliferation inhibition by compounds of the present invention, the luciferase based CellTiterGlo reagent (Promega), which quantifies total cell number based on total cellular ATP concentration, was used. Cells are plated at 10,000 cells per well in 100 ul of in RPMI media containing penn/strep, 10% FBS and 1 ng/ml GM-CSF or 1 ng/ml IL-3 for MV4-11 and Baf3 cells respectively.\nCompound dilutions or 0.1% DMSO (vehicle control) are added to cells and the cells are allowed to grow for 72 hours at standard cell growth conditions (37° C., 5% CO2). For activity measurements in MV4-11 cells grown in 50% plasma, cells were plated at 10,000 cells per well in a 1:1 mixture of growth media and human plasma (final volume of 100 μL). To measure total cell growth an equal volume of CellTiterGlo reagent was added to each well, according to the manufacturer's instructions, and luminescence was quantified. Total cell growth was quantified as the difference in luminescent counts (relative light units, RLU) of cell number at Day 0 compared to total cell number at Day 3 (72 hours of growth and/or compound treatment). One hundred percent inhibition of growth is defined as an RLU equivalent to the Day 0 reading. Zero percent inhibition was defined as the RLU signal for the DMSO vehicle control at Day 3 of growth.\nData points are an average of triplicate samples. […] Inhibition and IC50 data analysis was done with GraphPad Prism using a non-linear regression fit with a multiparamater, sigmoidal dose-response (variable slope) equation."}, "[2]": {"system": "Baf3 cells", "test": "Baf3 cell proliferation (non-specific toxicity control)", "type": "cell-based, murine", "details": "Mus musculus, IL-3 driven", "from_the_text": "The IL-3 dependent, murine b-cell lymphoma cell line, Baf3, were used as a control to confirm the selectivity of compound inhibition of proliferation for representatives of the present invention by measuring non-specific growth inhibition by the compounds of the present invention (data not shown). To measure proliferation inhibition by compounds of the present invention, the luciferase based CellTiterGlo reagent (Promega), which quantifies total cell number based on total cellular ATP concentration, was used. […] Compound dilutions or 0.1% DMSO (vehicle control) are added to cells and the cells are allowed to grow for 72 hours at standard cell growth conditions (37° C., 5% CO2). […] To measure total cell growth an equal volume of CellTiterGlo reagent was added to each well, according to the manufacturer's instructions, and luminescence was quantified. Total cell growth was quantified as the difference in luminescent counts (relative light units, RLU) of cell number at Day 0 compared to total cell number at Day 3 (72 hours of growth and/or compound treatment). One hundred percent inhibition of growth is defined as an RLU equivalent to the Day 0 reading. Zero percent inhibition was defined as the RLU signal for the DMSO vehicle control at Day 3 of growth. MV4-11 cells express the FLT3 internal tandem duplication mutation, and thus are entirely dependent upon FLT3 activity for growth. […]"}, "[3]": {"system": "MV4-11 tumor xenografts", "test": "Nude mouse MV4-11 human tumor xenograft regression model", "type": "in vivo", "details": "for final tumor weight: study termination", "procedure": "Female athymic nude mice (CD-1, nu/nu, 9-10 weeks old) were obtained from Charles River Laboratories (Wilmington, Mass.) and were maintained according to NIH standards. All mice were group housed (5 mice/cage) under clean-room conditions in sterile micro-isolator cages on a 12-hour light/dark cycle in a room maintained at 21-22° C. and 40-50% humidity. Mice were fed irradiated standard rodent diet and water ad libitum. All animals were housed in a Laboratory Animal Medicine facility that is fully accredited by the American Association for Assessment and Accreditation of Laboratory Animal Care (AAALAC). All procedures involving animals were conducted in compliance with the NIH Guide for the Care and Use of Laboratory Animals and all protocols were approved by an […] Animal Care and Use Committee (IACUC). The human leukemic MV4-11 cell line was obtained from the American Type Culture Collection (ATCC Number: CRL-9591) and propagated in RPMI medium containing 10% FBS (fetal bovine serum) and 5 ng/mL GM-CSF (R&D Systems). […] MV4-11 cells express constitutively active phosphorylated FLT3 receptor as a result of this naturally occurring FLT3/ITD mutation. Strong anti-tumor activity against MV4-11 tumor growth in the nude mouse tumor xenograft model is a desirable quality of the invention. […] Female athymic nude mice weighing no less than 20-21 grams were inoculated subcutaneously in the left inguinal region of the thigh with 5×10^6 tumor cells in a delivery volume of 0.2 mL. For regression studies, the tumors were allowed to grow to a pre-determined size prior to initiation of dosing."}, "[4]": {"test": "Body weight and overt toxicity in the MV4-11 xenograft study", "details": "11-day oral treatment, doses up to 200 mg/kg/day", "procedure": "If tumors in the control mice reached ˜10% of body weight (˜2.0 grams), the study was to be terminated. […] During the study, tumor growth was measured three times-a-week (M, W, F) using electronic Vernier calipers. Tumor volume (mm^3) was calculated using the formula […], where L=length (mm) and W=width (shortest distance in mm) of the tumor. Body weight was measured three times-a-week and a loss of body weight >10% was used as an indication of lack of compound tolerability. Unacceptable toxicity was defined as body weight loss >20% during the study. Mice were closely examined daily at each dose for overt clinical signs of adverse, drug-related side effects.\nMice were weighed three times each week (M, W, F) during the study and were examined daily at the time of dosing for overt clinical signs of any adverse, drug-related side effects."}, "[5]": {"system": "FLT3 phosphorylation in MV4-11 tumors", "test": "FLT3 phosphorylation in MV4-11 tumors (immunoprecipitation / western blot)", "type": "in vivo, mouse", "details": "tumors harvested 6 hours later", "procedure": "Tumors were harvested 6 hours later and snap frozen for assessment of FLT3 phosphorylation by western blots.\nHarvested tumors were frozen and processed for immunoblot analysis of FLT3 phosphorylation in the following manner: 200 mg of tumor tissue was dounce homogenized in lysis buffer (50 mM Hepes, 150 mM NaCl, 10% Glycerol, 1% Triton-X-100, 10 mM NaF, 1 mM EDTA, 1.5 mM MgCl2, 10 mM NaPyrophosphate) supplemented with phosphatase (Sigma Cat# P2850) and protease inhibitors (Sigma Cat #P8340). Insoluble debris was removed by centrifugation at 1000×g for 5 minutes at 4° C. […] Immunoprecipitated FLT3 from tumor lysates were then washed four times with lysis buffer and separated by SDS-PAGE. […] Blots were then stripped and reprobed with anti-FLT3 antibody for normalization of phosphorylation signals."}}}
{"smiles": "CN(C)CC(=O)N1CCC(c2ccc(NC(=O)c3nc(C#N)c[nH]3)c(C3=CCCCC3)c2)CC1", "note": "[Example 38, 4-Cyano-1H-imidazole-2-carboxylic acid {2-cyclohex-1-enyl-4-[1-(2-dimethylamino-acetyl)-piperidin-4-yl]-phenyl}-amide]", "values": [{"measurement": "IC50", "setting": "[1]", "result": 23.5, "unit": "nM"}, {"measurement": "inhibition at 3 µM", "setting": "[2]", "result": "< 50", "unit": "%"}, {"measurement": "tumor growth delay compared to vehicle-treated control group", "setting": "[3]; 10 mg/kg b.i.d. oral, 11 days", "result": "no significant growth delay"}, {"measurement": "final tumor weight", "setting": "[3]; 10 mg/kg b.i.d. oral", "result": "no significant decrease in final tumor weight"}, {"measurement": "final tumor weight", "setting": "[3]; 50 mg/kg b.i.d. oral", "result": "no measurable tumor mass detectable"}, {"measurement": "effects on body weight", "setting": "[4]", "result": "no significant adverse effects on body weight"}, {"measurement": "level of FLT3 phosphorylation in MV4-11 tumors versus vehicle", "setting": "[5]; single dose 10 mg/kg po", "result": "partial reduction"}, {"measurement": "level of FLT3 phosphorylation in MV4-11 tumors versus vehicle", "setting": "[5]; single dose 100 mg/kg po", "result": "biologically significant reduction"}]}
